Results reported in patent US9855268B2, “Triazolo[4,5-d]pyrimidine derivatives” (Merck Patent GmbH, priority 2013, dated 2018).

Key:
GSK3α(h) = GSK3α(h) (Homo sapiens, UniProt P49840); experiment: GSK3α radiometric kinase assay (33P-ATP, phospho GS2 peptide); type: biochemical; conditions: read-out: IC50 GSK3α (enzyme assay)
Experimental: GSK3α(h) is incubated with 8 mM MOPS pH 7,0, 0,2 mM EDTA, 20 μM
[…](p)EDEEE (phosphor GS2 peptide), 10 mM Mg-acetate and [gamma-33P-ATP](specific activity approx. 500 cpm/Pmol, concentration as required). The reaction is initiated by the addition of the MgATP. After incubation for 40 minutes at the room temperature, the Reaction is stopped by the addition of 3% phosphoric acid solution. 10 μL of reaction is then spotted onto a P30 filtermat and washed three times for 5 minutes in 50 mM phosphoric acid and once in methanol prior to drying and scintillation counting.

GCN2 [1] = molecular target: T1, GCN2 (Homo sapiens, UniProt Q9P2K8); experiment: Cellular assay of GCN2 activity (phospho-eIF2alpha immunocytochemistry after tryptophanol); type: cell-based; parameters: endogenous in cells; host or cells: U2OS; conditions: Human U2OS cells, 2 h compound, 600 μM tryptophanol 30 min
Experimental: Cellular Assay for the Determination of Compound Activities
Human U2OS cells (2000 cells/well) are seeded into 384-well plates and incubated for 20 hours.
The next day, the cells are treated with the test compounds and incubated for 2 hours. Then, tryptophanol, at a final concentration of 600 μM, is added to the cells and those are incubated for 30 minutes.
The analysis of cellular GCN2 activities is done by immunocytochemistry.
Briefly, cells are fixated on the well surfaces by formaldehyde and permeabilised with Triton X-100.
The analysis and quantification of phosphorylated GCN2 is done by scanning the plates in the Acumen Explorer system (TTPLabtech). The obtained data are normalised against the untreated control wells (DMSO only) and expressed as % effect values. The determination of IC50 values is done by using the Graph Pad Prism software.
Target sequence in this assay (Q9P2K8 whole entry): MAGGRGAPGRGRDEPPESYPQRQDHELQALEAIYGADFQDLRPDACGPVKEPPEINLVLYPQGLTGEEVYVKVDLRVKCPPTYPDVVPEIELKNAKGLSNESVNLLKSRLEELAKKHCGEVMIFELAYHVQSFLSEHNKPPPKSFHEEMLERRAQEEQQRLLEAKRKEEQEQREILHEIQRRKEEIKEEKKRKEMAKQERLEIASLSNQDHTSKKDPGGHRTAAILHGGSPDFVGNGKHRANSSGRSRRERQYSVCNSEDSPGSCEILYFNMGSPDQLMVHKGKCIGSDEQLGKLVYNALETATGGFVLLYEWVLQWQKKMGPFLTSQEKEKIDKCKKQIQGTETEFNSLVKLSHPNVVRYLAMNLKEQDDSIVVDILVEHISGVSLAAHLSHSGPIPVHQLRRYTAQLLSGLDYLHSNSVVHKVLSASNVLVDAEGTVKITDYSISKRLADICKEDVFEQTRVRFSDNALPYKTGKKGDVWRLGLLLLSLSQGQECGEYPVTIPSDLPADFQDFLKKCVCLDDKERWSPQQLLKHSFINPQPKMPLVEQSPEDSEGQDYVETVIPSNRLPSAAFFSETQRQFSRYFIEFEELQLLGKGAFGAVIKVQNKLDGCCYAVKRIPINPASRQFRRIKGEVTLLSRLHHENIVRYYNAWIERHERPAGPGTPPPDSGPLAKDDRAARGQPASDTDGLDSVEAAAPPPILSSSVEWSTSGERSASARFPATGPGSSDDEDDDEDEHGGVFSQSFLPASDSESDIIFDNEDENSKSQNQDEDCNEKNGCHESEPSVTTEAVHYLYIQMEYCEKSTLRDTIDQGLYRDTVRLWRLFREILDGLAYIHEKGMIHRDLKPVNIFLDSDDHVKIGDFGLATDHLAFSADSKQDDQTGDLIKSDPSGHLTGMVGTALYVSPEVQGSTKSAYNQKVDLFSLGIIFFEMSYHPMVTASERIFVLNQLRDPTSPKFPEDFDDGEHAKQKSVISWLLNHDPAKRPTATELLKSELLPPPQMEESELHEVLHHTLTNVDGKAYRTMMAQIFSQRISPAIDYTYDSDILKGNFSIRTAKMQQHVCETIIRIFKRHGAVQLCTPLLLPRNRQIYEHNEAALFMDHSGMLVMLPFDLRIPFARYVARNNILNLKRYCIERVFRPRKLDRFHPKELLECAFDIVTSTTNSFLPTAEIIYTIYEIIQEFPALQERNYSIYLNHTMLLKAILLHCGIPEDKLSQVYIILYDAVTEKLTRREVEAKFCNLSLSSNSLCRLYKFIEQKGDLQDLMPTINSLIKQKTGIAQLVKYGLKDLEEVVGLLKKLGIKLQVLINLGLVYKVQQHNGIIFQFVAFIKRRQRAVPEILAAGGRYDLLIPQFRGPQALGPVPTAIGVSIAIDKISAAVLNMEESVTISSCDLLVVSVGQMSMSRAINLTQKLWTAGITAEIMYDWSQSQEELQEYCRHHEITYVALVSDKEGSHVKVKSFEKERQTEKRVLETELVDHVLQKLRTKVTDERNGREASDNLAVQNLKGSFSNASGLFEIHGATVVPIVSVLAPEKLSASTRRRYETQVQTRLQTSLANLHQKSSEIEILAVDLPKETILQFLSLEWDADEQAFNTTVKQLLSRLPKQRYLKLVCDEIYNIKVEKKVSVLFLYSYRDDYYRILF

GCN2 [2] = molecular target: T1, GCN2; experiment: GCN2 enzyme assay (TR-FRET Lanthascreen, GFP-eIF2alpha phosphorylation); type: biochemical; conditions: 10 μM ATP, 80 nM GFP-eIF2a, 30 nM GCN2
Procedure, shortened: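 Kinase reaction with 10 μM ATP and 80 nM GFP-labelled eIF2alpha substrate at room temperature, stopped with EDTA. Phospho-eIF2alpha detected by TR-FRET between antibody and GFP-substrate, excitation at 340 nm.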
Target sequence in this assay (Q9P2K8 whole entry, species assumed): as the sequence (Q9P2K8 whole entry) above

GSK3α(h), sequence (P49840 whole entry): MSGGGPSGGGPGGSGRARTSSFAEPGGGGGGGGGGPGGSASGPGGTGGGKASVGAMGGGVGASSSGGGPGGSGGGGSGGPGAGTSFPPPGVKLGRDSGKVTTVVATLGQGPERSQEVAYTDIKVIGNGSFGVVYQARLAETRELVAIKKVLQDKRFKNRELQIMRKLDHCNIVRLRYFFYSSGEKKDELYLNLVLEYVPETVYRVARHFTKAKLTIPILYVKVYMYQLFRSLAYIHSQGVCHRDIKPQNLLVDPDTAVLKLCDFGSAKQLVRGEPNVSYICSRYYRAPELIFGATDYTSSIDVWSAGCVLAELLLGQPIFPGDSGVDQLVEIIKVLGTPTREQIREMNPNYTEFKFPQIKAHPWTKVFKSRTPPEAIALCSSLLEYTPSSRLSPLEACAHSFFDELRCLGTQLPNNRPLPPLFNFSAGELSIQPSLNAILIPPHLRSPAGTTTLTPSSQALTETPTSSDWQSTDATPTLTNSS

Row | Compound | IC50 (GSK3α(h)) [nM] | IC50 (GCN2 [1]) [nM] | IC50 (GCN2 [2]) [nM]
1 | Cc1nc2ccc(-n3nnc4cnc(N[C@@H]5CC[C@H](C(N)=O)C5)nc43)cc2o1 [A141, (1S,3R)-3-[3-(2-methyl-benzoxazol-6-yl)-3H-[1,2,3]triazolo[4,5-d]pyrimidin-5-ylamino]-cyclopentanecarboxylic acid amide] | < 1000 | 5000 to 10000 | < 1000
2 | Cn1cc(-c2ccc(-n3nnc4cnc(N[C@H]5CC[C@H](N)CC5)nc43)cc2)cn1 [A129, N-{3-[4-(1-methyl-1H-pyrazol-4-yl)-phenyl]-3H-[1,2,3]triazolo[4,5-d]pyrimidin-5-yl}-trans-cyclohexane-1,4-diamine] | < 1000 | 1000 to 5000 | < 1000
3 | O[C@@H]1CC[C@@H](Nc2ncc3nnn(-c4ccc(-c5cnn(CCN6CCCC6)c5)cc4)c3n2)C1 [A213, (1R,3R)-3-(3-{4-[1-(2-pyrrolidin-1-yl-ethyl)-1H-pyrazol-4-yl]-phenyl}-3H-[1,2,3]triazolo[4,5-d]pyrimidin-5-ylamino)-cyclopentanol] | < 1000 | 1000 to 5000 | < 1000
4 | CN(C)CCC(=O)N1CC[C@@H](Nc2ncc3nnn(-c4ccc(-c5cnn(C)c5)cc4)c3n2)C1 [A130, 3-dimethylamino-1-((R)-3-{3-[4-(1-methyl-1H-pyrazol-4-yl)-phenyl]-3H-[1,2,3]triazolo[4,5-d]pyrimidin-5-ylamino}-pyrrolidin-1-yl)-propan-1-one] | < 1000 | 5000 to 10000 | < 1000
5 | Cc1ccc2cc(-n3nnc4cnc(N[C@@H]5CC[C@@H](O)C5)nc43)ccc2n1 (relative stereo) [A202, (trans)-3-[3-(2-methyl-quinolin-6-yl)-3H-[1,2,3]triazolo[4,5-d]pyrimidin-5-ylamino]-cyclopentanol] | < 1000 | 1000 to 5000 | < 1000
6 | COCC(COC)Oc1ccc(-n2nnc3cnc(N[C@@H]4CC[C@@H](C(N)=O)C4)nc32)cc1 [A167, (1R,3R)-3-{3-[4-(2-methoxy-1-methoxymethyl-ethoxy)-phenyl]-3H-[1,2,3]triazolo[4,5-d]pyrimidin-5-ylamino}-cyclopentanecarboxylic acid amide] |  | 1000 to 5000 | < 1000
7 | NC(=O)[C@@H]1CC[C@@H](Nc2ncc3nnn(-c4ccc(OC5CCOCC5)cc4)c3n2)C1 [A168, (1R,3R)-3-{3-[4-(tetrahydro-pyran-4-yloxy)-phenyl]-3H-[1,2,3]triazolo[4,5-d]-pyrimidin-5-ylamino}-cyclopentanecarboxylic acid amide] |  | 1000 to 5000 | < 1000
8 | Cn1cc2ccc(-n3nnc4cnc(N[C@@H]5CC[C@@H](C(N)=O)C5)nc43)cc2n1 [A185, (1R,3R)-3-[3-(2-methyl-2H-indazol-6-yl)-3H-[1,2,3]triazolo[4,5-d]pyrimidin-5-ylamino]-cyclopentanecarboxylic acid amide] |  | 5000 to 10000 | < 1000
9 | Cc1ccc2cc(-n3nnc4cnc(N[C@@H]5CC[C@H](C(N)=O)C5)nc43)ccc2n1 [A191, (1S,3R)-3-[3-(2-methyl-quinolin-6-yl)-3H-[1,2,3]triazolo[4,5-d]pyrimidin-5-ylamino]-cyclopentanecarboxylic acid amide] |  | 1000 to 5000 | < 1000
10 | CCOc1ccc(-n2nnc3cnc(N[C@@H]4CC[C@@H](C(=O)N(C)CC(C)(C)O)C4)nc32)cc1 [A251, (1R,3R)-3-[3-(4-ethoxy-phenyl)-3H-[1,2,3]triazolo[4,5-d]pyrimidin-5-ylamino]-cyclopentanecarboxylic acid (2-hydroxy-2-methyl-propyl)-methyl-amide] |  | 5000 to 10000 | < 1000
11 | NC(=O)[C@@H]1CC[C@@H](Nc2ncc3nnn(-c4ccc(O)cc4)c3n2)C1 [A276, (1R,3R)-3-[3-(4-hydroxy-phenyl)-3H-[1,2,3]triazolo[4,5-d]pyrimidin-5-ylamino]-cyclopentanecarboxylic acid amide] |  | 5000 to 10000 | < 1000
12 | COc1ccc(-n2nnc3cnc(N[C@@H]4CC[C@@H](C(=O)N(C)C)C4)nc32)cc1 [A243, (1R,3R)-3-[3-(4-methoxy-phenyl)-3H-[1,2,3]triazolo[4,5-d]pyrimidin-5-ylamino]-cyclo pentanecarboxylic acid dimethylamide] |  | 1000 to 5000 | < 1000
13 | COCCn1cc(-c2ccc(-n3nnc4cnc(N[C@H]5CC[C@H](N)CC5)nc43)cc2)cn1 [A52, N-(3-{4-[1-(2-methoxy-ethyl)-1H-pyrazol-4-yl]-phenyl}-3H-[1,2,3]triazolo[4,5-d]-pyrimidin-5-yl)-cyclohexane-1,4-diamine] |  | 1000 to 5000 | < 1000
14 | N[C@H]1CC[C@H](Nc2ncc3nnn(-c4ccc(N5CCOCC5)cc4)c3n2)CC1 [A64, N-[3-(4-morpholin-4-yl-phenyl)-3H-[1,2,3]triazolo[4,5-d]pyrimidin-5-yl]-cyclohexane-1,4-diamine] |  | 1000 to 5000 | < 1000
15 | N[C@H]1CC[C@H](Nc2ncc3nnn(-c4ccc(-c5cnn(CCO)c5)cc4)c3n2)CC1 [A256, 2-(4-{4-[5-(trans-4-amino-cyclohexylamino)-[1,2,3]triazolo[4,5-d]pyrimidin-3-yl]-phenyl}-pyrazol-1-yl)-ethanol] |  | 5000 to 10000 | < 1000
16 | Cn1cc2cc(-n3nnc4cnc(N[C@@H]5CC[C@@H](C(N)=O)C5)nc43)ccc2n1 [A186, (1R,3R)-3-[3-(2-methyl-2H-indazol-5-yl)-3H-[1,2,3]triazolo[4,5-d]pyrimidin-5-ylamino]-cyclopentanecarboxylic acid amide] |  | 1000 to 5000 | < 1000
17 | O[C@@H]1CC[C@@H](Nc2ncc3nnn(-c4ccc(OC[C@H](O)C(F)(F)F)cc4)c3n2)C1 (stereo in doubt) [A205, (trans)-3-{3-[4-((S)-3,3,3-trifluoro-2-hydroxy-propoxy)-phenyl]-3H-[1,2,3]triazolo[4,5-d]pyrimidin-5-ylamino}-cyclopentanol] |  | 5000 to 10000 | < 1000
18 | Cc1ccc2cc(-n3nnc4cnc(N[C@@H]5CC[C@@H](O)C5)nc43)ccc2n1 [A208, (1R,3R)-3-[3-(2-methyl-quinolin-6-yl)-3H-[1,2,3]triazolo[4,5-d]pyrimidin-5-ylamino]-cyclopentanol] |  | 1000 to 5000 | < 1000
19 | Cc1ccc2cc(-n3nnc4cnc(N[C@@H]5CC[C@@H](C(=O)NCCC(C)(C)O)C5)nc43)ccc2n1 [A253, (1R,3R)-3-[3-(2-methyl-quinolin-6-yl)-3H-[1,2,3]triazolo[4,5-d]pyrimidin-5-ylamino]-cyclopentanecarboxylic acid (3-hydroxy-3-methyl-butyl)-amide] |  | < 1000 | < 1000
20 | COC(=O)CCOc1ccc(-n2nnc3cnc(N[C@@H]4CC[C@@H](C(N)=O)C4)nc32)cc1 [A292, 3-{4-[5-((1R,3R)-3-carbamoyl-cyclopentylamino)-[1,2,3]triazolo[4,5-d]pyrimidin-3-yl]-phenoxy}-propionic acid methyl ester] |  | 1000 to 5000 | < 1000
21 | COc1ccc(-n2nnc3cnc(NC4CC4)nc32)cc1 [A4, cyclopropyl-[3-(4-methoxy-phenyl)-3H-[1,2,3]triazolo[4,5-d]pyrimidin-5-yl]-amine] |  | < 1000 | < 1000
22 | N[C@H]1CC[C@H](Nc2ncc3nnn(-c4ccc(N5CC[C@@H](O)C5)cc4)c3n2)CC1 [A70, (R)-1-{4-[5-((trans)-4-amino-cyclohexylamino)-[1,2,3]triazolo[4,5-d]pyrimidin-3-yl]-phenyl}-pyrrolidin-3-ol] |  | 5000 to 10000 | < 1000
23 | OCCn1cc(-c2ccc(-n3nnc4cnc(N[C@H]5CC[C@H](O)C5)nc43)cc2)cn1 (relative stereo) [A57, trans-3-(3-{4-[1-(2-hydroxy-ethyl)-1H-pyrazol-4-yl]-phenyl}-3H-[1,2,3]triazolo[4,5-d]pyrimidin-5-ylamino)-cyclopentanol] |  | 1000 to 5000 | < 1000
24 | N[C@H]1CC[C@H](Nc2ncc3nnn(-c4ccc(N5CC[C@H](O)C5)cc4)c3n2)CC1 [A128, (S)-1-{4-[5-(4-amino-cyclohexylamino)-[1,2,3]triazolo[4,5-d]pyrimidin-3-yl]-phenyl}-pyrrolidin-3-ol] |  | 5000 to 10000 | < 1000
25 | Cn1cc(-c2ccc(-n3nnc4cnc(N[C@H]5CC[C@H](O)C5)nc43)cc2)cn1 (relative stereo) [A51, trans-3-{3-[4-(1-methyl-1H-pyrazol-4-yl)-phenyl]-3H-[1,2,3]triazolo[4,5-d]pyrimidin-5-ylamino}-cyclopentanol] |  | 1000 to 5000 | < 1000
26 | COc1ccc(-n2nnc3cnc(NC4CCN(C(=O)CCN(C)C)CC4)nc32)cc1 [A49, 3-dimethylamino-1-{4-[3-(4-methoxy-phenyl)-3H-[1,2,3]triazolo[4,5-d]pyrimidin-5-ylamino]-piperidin-1-yl}-propan-1-one] |  | 5000 to 10000 | < 1000
